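Step 1: Grow cells in 96-well plates. Step 2: Expose to compound for 48 hours at 5 concentrations. Step 3: Interpolate endpoints linearly; if unreached, use highest concentration. The concentration for full growth arrest is given as TGI.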
Key:
Assay in all cases: NCI-60 cell line screen, 48 h
SK-MEL-2 melanoma = system: SK-MEL-2 melanoma
CAKI-1 renal = system: CAKI-1 renal
UACC-257 melanoma = system: UACC-257 melanoma
RXF 393 renal = system: RXF 393 renal
OVCAR-4 ovarian = system: OVCAR-4 ovarian
HT29 colon = system: HT29 colon
K-562 leukemia = system: K-562 leukemia
HL-60(TB) leukemia = system: HL-60(TB) leukemia
RPMI-8226 leukemia = system: RPMI-8226 leukemia
U251 CNS = system: U251 CNS
SF-268 CNS = system: SF-268 CNS
LOX IMVI melanoma = system: LOX IMVI melanoma
HOP-62 NSCLC = system: HOP-62 NSCLC
CCRF-CEM leukemia = system: CCRF-CEM leukemia
SNB-75 CNS = system: SNB-75 CNS
SK-MEL-5 melanoma = system: SK-MEL-5 melanoma
KM12 colon = system: KM12 colon
HOP-92 NSCLC = system: HOP-92 NSCLC
UACC-62 melanoma = system: UACC-62 melanoma
SW-620 colon = system: SW-620 colon

SMILES: CCCn1cc2c3c(cccc31)C1C=C(C)CN(C)C1C2 (stereo not drawn)
- TGI (SK-MEL-2 melanoma): 63.4 µM
- TGI (CAKI-1 renal): 44.2 µM
- TGI (UACC-257 melanoma): 29.6 µM
- TGI (RXF 393 renal): 52.7 µM
- TGI (OVCAR-4 ovarian): 29.8 µM
- TGI (HT29 colon): 42.7 µM
- TGI (K-562 leukemia): 22.6 µM
- TGI (HL-60(TB) leukemia): 5.56 µM
- TGI (RPMI-8226 leukemia): 25.1 µM
- TGI (U251 CNS): 52 µM
- TGI (SF-268 CNS): 47.2 µM
- TGI (LOX IMVI melanoma): 39.8 µM
- TGI (HOP-62 NSCLC): 67.2 µM
- TGI (CCRF-CEM leukemia): 44.9 µM
- TGI (SNB-75 CNS): 39.3 µM
- TGI (SK-MEL-5 melanoma): 38.3 µM
- TGI (KM12 colon): 58 µM
- TGI (HOP-92 NSCLC): 37.9 µM
- TGI (UACC-62 melanoma): 55.7 µM
- TGI (SW-620 colon): 62.4 µM

SMILES: CCOC(=O)c1csc(NC(=O)CCN2CCN(C)CC2)n1
- TGI (SK-MEL-2 melanoma): > 100 µM
- TGI (CAKI-1 renal): > 100 µM
- TGI (UACC-257 melanoma): > 100 µM
- TGI (RXF 393 renal): > 100 µM
- TGI (OVCAR-4 ovarian): > 100 µM
- TGI (HT29 colon): > 100 µM
- TGI (K-562 leukemia): > 100 µM
- TGI (HL-60(TB) leukemia): > 100 µM
- TGI (RPMI-8226 leukemia): > 100 µM
- TGI (U251 CNS): > 100 µM
- TGI (LOX IMVI melanoma): > 100 µM
- TGI (HOP-62 NSCLC): > 100 µM
- TGI (CCRF-CEM leukemia): > 100 µM
- TGI (SNB-75 CNS): > 100 µM
- TGI (SK-MEL-5 melanoma): > 100 µM
- TGI (KM12 colon): > 100 µM
- TGI (HOP-92 NSCLC): > 100 µM
- TGI (UACC-62 melanoma): > 100 µM
- TGI (SW-620 colon): > 100 µM

SMILES: COc1cc(N=Nc2ccc(OC)c(S(=O)(=O)O)c2)c(C)cc1N=Nc1ccc(/C=C/c2ccc(N=[N+]([O-])c3ccc(/C=C/c4ccc(N=Nc5cc(C)c(N=Nc6ccc(OC)c(S(=O)(=O)O)c6)cc5OC)cc4S(=O)(=O)O)c(S(=O)(=O)O)c3)cc2S(=O)(=O)O)c(S(=O)(=O)O)c1
- TGI (SK-MEL-2 melanoma): > 100 µM
- TGI (UACC-257 melanoma): > 100 µM
- TGI (RXF 393 renal): > 100 µM
- TGI (OVCAR-4 ovarian): > 100 µM
- TGI (HT29 colon): > 100 µM
- TGI (K-562 leukemia): > 100 µM
- TGI (HL-60(TB) leukemia): > 100 µM
- TGI (RPMI-8226 leukemia): > 100 µM
- TGI (U251 CNS): > 100 µM
- TGI (SF-268 CNS): > 100 µM
- TGI (LOX IMVI melanoma): > 100 µM
- TGI (HOP-62 NSCLC): > 100 µM
- TGI (CCRF-CEM leukemia): > 100 µM
- TGI (SNB-75 CNS): > 100 µM
- TGI (SK-MEL-5 melanoma): > 100 µM
- TGI (KM12 colon): > 100 µM
- TGI (HOP-92 NSCLC): > 100 µM
- TGI (UACC-62 melanoma): > 100 µM
- TGI (SW-620 colon): > 100 µM

Reference: PubChem BioAssay (NCI)
